species: Rattus norvegicus; assay: Ratio concentration and the concentration of SFLLR-NH2 necessary for producing an equal relaxing effect on the isolated rat aortic rings; assay type: functional, Aorta

Point of comparison: `CC(C)C[C@H](NC(=O)[C@H](CC(C)C)NC(=O)[C@H](Cc1ccccc1)NC(=O)[C@@H](N)CO)C(=O)N[C@@H](CCCN=C(N)N)C(N)=O`, Relative potency 1. Against it:
- N=C(N)NCCCCCC(=O)N1CCC(C(=O)NCc2ccc(F)cc2)CC1 — higher, 37.3
- N=C(N)NCCCCCC(=O)NCCCCNC(=O)Cc1ccc(F)cc1 — higher, 50.6
- N=C(N)NCCCCCC(=O)NCCCCNC(=O)Cc1ccccc1 — higher, 68
- CC(C)C[C@@H]1NC(=O)[C@H](CC(C)C)NC(=O)[C@H](Cc2ccccc2)NC(=O)[C@@H](N)CNC(=O)[C@@H](N)CCCCNC(=O)[C@H](CCCN=C(N)N)NC1=O — higher, 3.3
- NC(N)=NCCCCCC(=O)N1CCN(C(=O)C(N)Cc2ccccc2)CC1 (configuration not stated) — higher, 32.8

Compound `CC(C)C[C@@H]1NC(=O)[C@H](CC(C)C)NC(=O)[C@@H](Cc2ccccc2)NC(=O)[C@@H](N)CNC(=O)[C@@H](N)CCCCNC(=O)[C@H](CCCNC(=N)N)NC1=O` has a Relative potency of over 500.

— ChEMBL document CHEMBL1134789, “Design, synthesis, and modeling of novel cyclic thrombin receptor-derived peptide analogues of the Ser42-Phe-Leu-Leu-Arg46 motif sequence with fixed conformations of pharmacophoric groups: importance of a Phe/Arg/NH2 cluster for receptor activation and implications in the design of nonpeptide …” (2001)
